One series deals with hippocampal slices. Particulars: cited from earlier work.
The conditions of series [1]: cited from earlier work.
For series [2] the following is noted: up to 2 hours after induction of hypoxia/ischemia, immature and adult rats; cited from earlier work.
The next series has as its system NMDA receptor. Particulars: cited from earlier work.
The conditions of series [3]: EAE (Wallstrom, 1996); cited from earlier work.
For series [4] the following is noted: rats with experimental acute liver failure; cited from earlier work.
The conditions of series [5]: one patient; metabolic deficits by PET not totally reversed; cited from earlier work.
For series [6] the following is noted: animals studies; cited from earlier work.
Another series addresses NR1A/2B (Homo sapiens, UniProt Q05586+Q13224). Particulars: cited from earlier work.
In series [7] the test system is inner hair cell afferents. Conditions: animal models; cited from earlier work.
In series [8] the test system is glutamate secreting tumors. Conditions: 25 mg/kg IP; cited from earlier work.
Series [9] can be described thus: Tinnitus patient treated with chronic oral memantine. Format: in vivo, human. Conditions: first patient in the USA, category I tinnitus, chronic oral 10 mg BID. The source says:
The efficacy of current therapy for tinnitus is controversial but includes devices that mask tinnitus and TRT (tinnitus retraining therapy) which is a technique utilizing white noise for a period of time to assist the patient to habituate to their tinnitus. […] We postulate that the administration of memantine would attenuate the neurotoxicity mechanisms of cochlear disorders and tinnitus, and also attenuate any abnormal neuronal plasticity in the temporal-parietal association cortex resulting in clinical efficacy for the treatment of tinnitus.

The conditions of series [10]: moderate and severe Alzheimer's disease; cited from earlier work.
In the next series the test system is NR2C and NR2D subunits. Particulars: cited from earlier work.
The conditions of series [11]: parallel treatment with memantine and 3-NP; cited from earlier work.
For series [12] the following is noted: multiple sclerosis patients; cited from earlier work.
The conditions of series [13]: rat, brain microdialysis with in vivo recovery; cited from earlier work.
The conditions of series [14]: animal studies; cited from earlier work.
In series [15] the test system is tumor cells including lung, rhabdomyosarcoma, medulloblastoma, and thyroid adenocarcinoma. Conditions: cited from earlier work.
For a further series, the system named is cortical cell cultures. Particulars: cited from earlier work.
The next series relates to BDNF mRNA. Conditions: rat limbic system; cited from earlier work.
The conditions of series [16]: rat, in vivo; cited from earlier work.
In another series the test system is neuronal ganglion cell. Particulars: administered 4 hours after NMDA neurotoxicity; cited from earlier work.
In series [17] the test system is D2, AMPA, kainate, alpha 1, alpha 2, and 5-HT re-uptake. Conditions: alpha 1, alpha 2, 5-HT re-uptake; cited from earlier work.
The conditions of series [18]: cited from earlier work. This is another data set of the same source.
The conditions of series [19]: in vivo; cited from earlier work.
For series [20] the following is noted: in vivo; cited from earlier work. This is another data set of the same source.
For series [21] the following is noted: cited from earlier work. This is another data set of the same source.
The conditions of series [22]: pre- or posttreatment, 20 mg/kg IP (von Euler, 1997); cited from earlier work.
For another series, the system named is GABA or AMPA receptors. Particulars: cited from earlier work.
The conditions of series [23]: in vivo; cited from earlier work. This is another data set of the same source.
Series [24] relates to L- and N type voltage-activated calcium channels, Na+ channels. Conditions: cited from earlier work.
For series [25] the following is noted: lesions of the entorhinal cortex; cited from earlier work.
Series [26] deals with NR2A of the NMDA receptor (Homo sapiens, UniProt Q05586+Q12879). Conditions: cited from earlier work.
For series [27] the following is noted: cited from earlier work. This is another data set of the same source.
The conditions of series [28]: injected directly into the VNC prior to UVD; cited from earlier work.
Another series deals with osteoblasts. Conditions: cited from earlier work.
The next series has as its system neurons. Conditions: cited from earlier work.
The conditions of series [29]: following nerve injury; cited from earlier work.
A further series concerns NMDA receptors. Conditions: perfused, ventilated rat lungs; cited from earlier work.
For series [30] the following is noted: rat, in vivo; cited from earlier work. The source holds these as a separate data set.
For series [31] the following is noted: acute, sub-anesthetic doses, normal subjects; cited from earlier work.
The conditions of series [32]: healthy subjects; cited from earlier work.

The values below come from US20040102525A1, “Compositions and methods of treating neurological disease and providing neuroprotection” (priority 2002, published 2004).

NR2A of the NMDA receptor, sequence (Q12879 23-1464, other chains not shown): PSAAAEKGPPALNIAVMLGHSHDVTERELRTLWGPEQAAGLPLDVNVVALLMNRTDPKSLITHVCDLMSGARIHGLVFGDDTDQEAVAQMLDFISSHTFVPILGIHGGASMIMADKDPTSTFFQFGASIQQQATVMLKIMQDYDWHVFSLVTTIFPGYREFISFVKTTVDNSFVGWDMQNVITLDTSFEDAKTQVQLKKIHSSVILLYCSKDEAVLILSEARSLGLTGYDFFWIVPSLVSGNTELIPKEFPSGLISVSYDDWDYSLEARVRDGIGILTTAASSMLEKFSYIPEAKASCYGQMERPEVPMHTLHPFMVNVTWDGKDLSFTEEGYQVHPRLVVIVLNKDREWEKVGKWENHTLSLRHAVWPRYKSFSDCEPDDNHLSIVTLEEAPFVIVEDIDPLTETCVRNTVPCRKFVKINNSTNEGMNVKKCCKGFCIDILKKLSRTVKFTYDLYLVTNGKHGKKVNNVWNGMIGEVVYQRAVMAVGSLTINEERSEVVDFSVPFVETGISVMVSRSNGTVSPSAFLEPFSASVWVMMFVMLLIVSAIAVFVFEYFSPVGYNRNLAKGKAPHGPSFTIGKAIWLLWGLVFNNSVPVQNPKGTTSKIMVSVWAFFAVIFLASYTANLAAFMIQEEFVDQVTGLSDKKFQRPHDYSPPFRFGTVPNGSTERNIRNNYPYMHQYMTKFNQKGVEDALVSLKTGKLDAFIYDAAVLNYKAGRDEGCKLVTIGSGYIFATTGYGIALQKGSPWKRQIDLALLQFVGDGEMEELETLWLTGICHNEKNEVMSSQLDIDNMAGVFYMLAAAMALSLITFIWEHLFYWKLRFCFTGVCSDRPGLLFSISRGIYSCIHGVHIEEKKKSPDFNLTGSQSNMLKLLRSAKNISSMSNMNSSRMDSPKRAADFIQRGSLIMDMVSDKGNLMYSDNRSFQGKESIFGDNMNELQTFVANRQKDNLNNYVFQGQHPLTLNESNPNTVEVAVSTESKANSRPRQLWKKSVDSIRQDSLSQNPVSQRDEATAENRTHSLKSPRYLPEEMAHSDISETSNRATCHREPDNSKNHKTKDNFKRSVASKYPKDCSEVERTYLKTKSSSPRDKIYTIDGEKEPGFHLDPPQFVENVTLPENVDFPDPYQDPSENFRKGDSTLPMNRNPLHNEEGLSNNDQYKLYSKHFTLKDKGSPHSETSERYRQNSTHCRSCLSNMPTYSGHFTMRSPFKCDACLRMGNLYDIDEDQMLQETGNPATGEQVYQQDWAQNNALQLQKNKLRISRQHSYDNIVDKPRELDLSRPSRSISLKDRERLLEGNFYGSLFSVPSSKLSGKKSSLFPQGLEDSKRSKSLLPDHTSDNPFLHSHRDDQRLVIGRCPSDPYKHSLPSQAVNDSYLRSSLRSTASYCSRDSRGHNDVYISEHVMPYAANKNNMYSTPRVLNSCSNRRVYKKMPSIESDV
NR1A/2B, sequence (Q13224 27-1484, other chains not shown): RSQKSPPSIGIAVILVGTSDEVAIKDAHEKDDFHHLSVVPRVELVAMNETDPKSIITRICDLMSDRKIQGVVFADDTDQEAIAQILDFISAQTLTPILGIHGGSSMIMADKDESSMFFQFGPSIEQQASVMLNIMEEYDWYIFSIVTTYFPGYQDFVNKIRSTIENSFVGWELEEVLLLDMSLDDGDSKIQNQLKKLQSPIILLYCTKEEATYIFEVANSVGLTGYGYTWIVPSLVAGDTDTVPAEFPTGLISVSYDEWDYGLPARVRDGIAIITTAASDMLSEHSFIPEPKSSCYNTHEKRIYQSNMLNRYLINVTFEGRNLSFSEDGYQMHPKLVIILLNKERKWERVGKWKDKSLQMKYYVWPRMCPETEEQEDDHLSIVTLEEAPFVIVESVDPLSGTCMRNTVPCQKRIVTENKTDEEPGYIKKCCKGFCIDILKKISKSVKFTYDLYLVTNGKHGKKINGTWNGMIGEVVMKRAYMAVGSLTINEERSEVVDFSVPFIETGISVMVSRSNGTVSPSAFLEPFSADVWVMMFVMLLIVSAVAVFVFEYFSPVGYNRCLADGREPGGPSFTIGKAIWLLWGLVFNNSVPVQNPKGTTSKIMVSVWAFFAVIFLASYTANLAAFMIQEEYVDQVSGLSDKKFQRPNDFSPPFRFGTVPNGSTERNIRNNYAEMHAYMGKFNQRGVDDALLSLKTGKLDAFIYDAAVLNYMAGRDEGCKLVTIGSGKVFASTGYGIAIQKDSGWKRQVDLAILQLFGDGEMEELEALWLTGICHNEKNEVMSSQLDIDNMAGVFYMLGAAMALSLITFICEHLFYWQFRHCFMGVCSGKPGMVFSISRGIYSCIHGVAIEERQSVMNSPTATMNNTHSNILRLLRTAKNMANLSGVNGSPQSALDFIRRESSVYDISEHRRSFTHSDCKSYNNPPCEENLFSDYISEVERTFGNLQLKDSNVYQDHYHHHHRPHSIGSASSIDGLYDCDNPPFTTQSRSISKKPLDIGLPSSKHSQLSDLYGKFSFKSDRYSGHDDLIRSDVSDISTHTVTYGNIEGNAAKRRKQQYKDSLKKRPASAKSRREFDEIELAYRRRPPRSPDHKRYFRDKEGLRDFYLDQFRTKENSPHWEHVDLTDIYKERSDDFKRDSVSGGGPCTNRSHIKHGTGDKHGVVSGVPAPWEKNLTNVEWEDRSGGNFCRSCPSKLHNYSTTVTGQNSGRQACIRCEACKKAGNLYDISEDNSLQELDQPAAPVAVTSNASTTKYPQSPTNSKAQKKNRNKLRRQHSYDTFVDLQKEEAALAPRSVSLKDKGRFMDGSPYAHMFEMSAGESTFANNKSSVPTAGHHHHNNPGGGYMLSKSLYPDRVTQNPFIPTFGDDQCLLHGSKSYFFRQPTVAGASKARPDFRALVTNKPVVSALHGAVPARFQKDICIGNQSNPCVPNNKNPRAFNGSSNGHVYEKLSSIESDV

As to `CC12CC3CC(C)(C1)CC(N)(C3)C2.Cl` [memantine, 1-amino-3,5-dimethyl-adamantane hydrochloride], the “effect on LTP in hippocampal slices” value in the series on hippocampal slices (6-10 μM) is “do not attenuate LTP”. Besides, the “increase of the CA1 pyramidal cell spike” value in the series with hippocampal slices (in vitro) is given as 100%. Moreover, the “synaptic functioning after removal of Mg++” value with hippocampal slices (relevant human brain concentrations (1-μM)) is listed as “normalized synaptic functioning”. In addition, in [1] (after oral intake), the “TTP (time-to-peak concentration)” value is 6 to 8 h. Further, in series [1] (due to albumin binding), the “decrease of CSF (cerebrospinal fluid) concentration” value is recorded as 20-50%. Moreover, the “CSF concentrations lower (CSF sampling)” value in series [1] (human subjects) is 30-40%. The serum levels in series [1] (humans, 20 mg per day) was 500 to 1000 nM. In [1] (in vivo), the “blood brain barrier penetration” value is reported as “easily penetrates the blood brain barrier”, the “plasma clearance half-life (t1/2)” value is 60 to 100 h, the protein binding is listed as 42-45% and the “time to steady-state plasma levels” value is “approximately 21 days”. For the same molecule, the “absorption from the gastrointestinal tract” value in series [1] (oral) is reported as “completely absorbed”. Also, the plasma levels in series [1] (patients treated with 10-30 mg per day) was 400 to 1000 nM. In addition, the infarct size result in [2] is given as “significantly reduce infarct size”. Moreover, the “NMDA channels left unblocked” value in the series on NMDA receptor is 20%. The “levels at which action is specific for antagonism of the NMDA receptor” value with NMDA receptor (does not affect other ligand-gated or voltage-gated channels) was 1 to 10 µM. Further, in series [3], the “effect on CNS inflammation, IFN-γ, lymphocytic proliferation, systemic immunity” value is “failed to have any effect”. In addition, the neurological status entry in series [4] is listed as “significant improvement”. Further, the “cognitive effects in alcoholic dementia” value in [5] is “reversed cognitive effects”. Also, in [6], the “induction of HSP, neuronal vacuolization and necrosis” value was “No induction of HSP (heat shock protein) or neuronal vacuolization and necrosis”. The “potency at NR1A/2B” value on NR1A/2B is “intermediate potency”. Besides, in series [7], the “NMDA stimulated activity of inner hair cell afferents” value was “selectively inhibit”. Moreover, in series [8], the “decrease of tumor volume” value is on record as 25% and the “tumor expansion facilitated by glutamate secretion” value is “blocked”. Further, in series [9], the response of tinnitus result is on record as “successfully treated”. For the same molecule, in series [10], the “rate of cognitive decline” value is given as “efficacy in decreasing the rate of cognitive decline”. Besides, the “block of NR2C and NR2D subunits” value in the series with NR2C and NR2D subunits is “preferentially blocks”. Besides, in series [11], the “enhanced neuronal density drop-out in the striatum” value is recorded as 26% and the “reduction in volume in the striatum” value was 11.5%. For the same molecule, in [12], the “treatment of APN” value was “efficacy”. Also, the “free brain concentrations lower” value in series [13] is reported as 20-30%. In addition, the “eliminating symptoms of drug withdrawal and addiction” value in series [14] was “conflicting and usually negative”. Besides, in [15] (in vitro), the “growth of brain and systemic glutamate secreting tumors” value is reported as “slow the growth”. Further, in series [15] (lung, rhabdomyosarcoma, medulloblastoma, thyroid adenocarcinoma), the “in vitro proliferation of tumor cells” value is recorded as “decrease in vitro proliferation”. The “levels at which in vitro proliferation was decreased” value in [15] (unobtainable at therapeutic human doses) was 100 μM/ml. Moreover, the “apoptosis induced by gp120” value with cortical cell cultures is listed as “prevention of apoptosis”. Further, in the series with BDNF mRNA, the “BDNF mRNA levels” value is listed as “increased BDNF mRNA levels”. In series [16], the “lesions of the NBM produced by mitochondrial toxins (3-NP)” value is “inhibited” and the “striatal lesions by malonate” value is “significantly attenuated”. In addition, the “neuronal ganglion cell death” value in the series with neuronal ganglion cell is listed as “prevention of neuronal ganglion cell death”. The “concentrations at which memantine interacts with multiple receptors” value in [17] is recorded as “greater than 100 μM”. Further, in series [18] (combined with AchE inhibitors), the “drug interaction with AchE (acetylcholinesterase inhibitors)” value is recorded as “no adverse drug interaction”. In addition, the adverse events entry in [18] (dose-related) is “nausea, dizziness, and restlessness”. For the same molecule, the hepatic toxicity entry in [18] (human, in vivo) is “minimal hepatic toxicity”. In addition, the “patients with headache as adverse event” value in [18] (patients who do not suffer from migraine, mild, usually transitory, dose related) is “up to 10%”. In addition, in series [19], the “therapeutic concentration that produces efficacy in Parkinson's disease” value is “less than 2 μM”. Also, the “efficacy as an anti-convulsant or in epilepsy” value in series [20] was “minimal efficacy”. Also, the “hippocampal damage, convulsions and cell death induced by ICV QUIN” value in [21] (in vivo) was “prevents hippocampal damage, convulsions and cell death”. Further, the “memory deficits by chronic ICV infusion of QUIN” value in series [21] (simultaneous infusion of memantine) is listed as “blocked”. For the same molecule, the “neurological or morphological outcome” value in [22] is reported as “failed to attenuate”. Further, in the series on GABA or AMPA receptors, the “effect on GABA or AMPA receptors” value is reported as “no effect”. Also, in [23], the placental penetration result is “good placental penetration”, the teratogenesis entry was “minimal teratogenesis” and the “toxicity to the fetus” value was “non-toxic properties to the fetus”. In [24], the “antagonism at L- and N type voltage-activated calcium channels, Na+ channels” value is on record as “weak antagonist”. In series [25], the “time to normalized learning” value was not above 8 days and the “time to reversal of learning impairment” value was not above 3 days. Besides, the “effects at NR2A” value in series [26] was “weak effects”.
Turning to `C[C@]12N[C@H](Cc3ccccc31)c1ccccc12` [MK-801], the “increased airway perfusion pressure produced by NMDA” value in series [27] (NMDA) is listed as “abolished”. Also, in series [27] (capsaicin), the “acute elevation in airway perfusion pressure by capsaicin” value is “attenuated in both magnitude and duration”. Further, the “severity of the vestibular syndrome (SON, YHT)” value in series [28] is listed as “reduced the severity of the vestibular syndrome”. Besides, the “inward currents in response to NMDA agonist stimulation” value in the series with osteoblasts is on record as “significant decrease in inward currents”. For the same molecule, the “neuronal loss by neurotoxic concentrations of glutamate” value in the series with neurons was “attenuated the neuronal loss”. Also, the motorneurone death result in series [29] was “reduced motorneurone death”. Further, the “pulmonary injury by NMDA receptor activation” value with NMDA receptors was “prevented”. In series [30], the “cortical spreading after infarction” value is given as “able to inhibit cortical spreading” and the hyperexcitability after infarction entry was “unable to reverse the hyperexcitability”.
Turning to `NCC1(CC(=O)O)CCCCC1` [gabapentin], the “treatment of APN” value in series [12] is on record as “efficacy”.
In the case of `CNC1(c2ccccc2Cl)CCCCC1=O` (stereo not shown) [ketamine], the memory result in [31] was “delayed memory recall and decreases in verbal and nonverbal memory”. Besides, the “smooth pursuit of eye movements” value in series [32] is given as “deficits in smooth pursuit of eye movements”.
